From patent publication US12279615B2, “Wood preservative and method for producing same” (Koppers Performance Chemicals Inc., priority 2016, dated 2025)

Experiments:
Coniophora puteana = assay: Laboratory soil-block decay resistance test, AWPA Standard E10-2015, treated southern pine sapwood cubes; assay type: cell-based; details: micronized penflufen
Procedure: (§1) The synergism was determined using a modified method as described by Kull et al. (Applied Microbiology, 1961 (9): 538-541). The modified method is described as below: QA/Qa+QB/Qb=SI • Where: • Qa=concentration of substance A alone which controls a particular decay fungus • Qb=concentration of substance B alone which controls a particular decay fungus • QA=concentration of substance A in the concentration of the A and B mixture at which controls a particular decay fungus • QB=concentration of substance B in the concentration of the A and B mixture at which controls a particular decay fungus • SI=1 means additivity • SI>1 means antagonism • SI<1 means synergism
(§2) Wood cubes measuring 19 mm×19 mm×19 mm were prepared from southern pine sapwood. One set of wood cubes were pressured treated with serial treating solutions containing penflufen fungicide. A second set of wood cubes were pressure treated with treating solutions containing the copper fungicide. A third set of wood cubes were pressure treated with treating solutions containing a mixture of the copper and penflufen. The treated wood samples were exposed to various fungi to conduct a laboratory decay resistance test following protocols as described in American Wood Protection Association Standard E10-2015. Before and after exposure to fungi, the wood samples were weighed to determine the weight percent loss. No weight loss means complete control of the fungal attack.
(§3) Wood cubes measuring 19 mm×19 mm×19 mm were prepared from southern pine sapwood. The wood cubes were pressure treated with treating solutions containing micronized penflufen. The treated wood samples were exposed to various fungi to conduct a laboratory decay resistance test following protocols as described in American Wood Protection Association Standard E10-2015. Before and after exposure to fungi, the wood samples were weighed to determine the weight percent loss.

Fibroporia radiculosa = assay: as above; assay type: cell-based; details: micronized penflufen
Procedure: as §1, §2, §3

Gloeophyllum trabeum = assay: as above; assay type: cell-based; details: micronized penflufen
Procedure: as §1, §2, §3

Postia placenta = assay: as above; assay type: cell-based; details: micronized penflufen
Procedure: as §1, §2, §3

[1] = Particle size of penflufen after milling with 1 mm zirconia; assay type: physicochemical; details: milled with 1 mm zirconia
From the text: The attainment of the injectable size, which generally requires both a d50 below 0.5 microns and a d98 less than three times the d50, was a surprising development. […] Milling a milling-resistant organic biocide, such as penflufen, with 1 mm zirconia provided a penflufen product with a d50 of 2 to 3 microns.

With `Cc1nn(C)c(F)c1C(=O)Nc1ccccc1C(C)CC(C)C` (stereo not drawn) [Penflufen, penflufen] as the compound, how does the “Mean Percent Weigh Loss of Treated Wood Cubes” value (“Mean Percent Weigh Loss” for short) (Coniophora puteana; Penflufen Retention 8 g/m^3) read?
Its value is 1.4%.

What about the “Mean Percent Weigh Loss” value (Coniophora puteana; Penflufen Retention 12 g/m^3) of the same compound?
The value was 1.6%.

What about the “Mean Percent Weigh Loss” value (Coniophora puteana; Penflufen Retention 16 g/m^3) of the same compound?
The value was 1.6%.

What about the “Mean Percent Weigh Loss” value (Coniophora puteana; Penflufen Retention 24 g/m^3) of the same compound?
Its value is 1.5%.

What about the “Mean Percent Weigh Loss” value (Coniophora puteana; Penflufen Retention 32 g/m^3) of the same compound?
Its value is 1.1%.

What about the “Mean Percent Weigh Loss” value (Coniophora puteana; Penflufen Retention 48 g/m^3) of the same compound?
Its value is 1.4%.

What about the “Mean Percent Weigh Loss” value (Coniophora puteana; Penflufen Retention 64 g/m^3) of the same compound?
Its value is 2.0%.

What about the “Mean Percent Weigh Loss” value (Coniophora puteana; Penflufen Retention 80 g/m^3) of the same compound?
Its value is 1.3%.

And the “Mean Percent Weigh Loss” value (Fibroporia radiculosa; Penflufen Retention 8 g/m^3)?
Its value is 12.0%.

What about the “Mean Percent Weigh Loss” value (Fibroporia radiculosa; Penflufen Retention 12 g/m^3) of the same compound?
Its value is 10.4%.

What about the “Mean Percent Weigh Loss” value (Fibroporia radiculosa; Penflufen Retention 16 g/m^3) of the same compound?
Its value is 8.2%.

And the “Mean Percent Weigh Loss” value (Fibroporia radiculosa; Penflufen Retention 24 g/m^3)?
The value was 8.2%.

What about the “Mean Percent Weigh Loss” value (Fibroporia radiculosa; Penflufen Retention 32 g/m^3) of the same compound?
The value was 5.4%.

And the “Mean Percent Weigh Loss” value (Fibroporia radiculosa; Penflufen Retention 48 g/m^3)?
Its value is 5.7%.

What about the “Mean Percent Weigh Loss” value (Fibroporia radiculosa; Penflufen Retention 64 g/m^3) of the same compound?
The value was 4.4%.

What about the “Mean Percent Weigh Loss” value (Fibroporia radiculosa; Penflufen Retention 80 g/m^3) of the same compound?
The value was 3.0%.

And the “Mean Percent Weigh Loss” value (Gloeophyllum trabeum; Penflufen Retention 8 g/m^3)?
The value was 3.1%.

What about the “Mean Percent Weigh Loss” value (Gloeophyllum trabeum; Penflufen Retention 12 g/m^3) of the same compound?
Its value is 2.9%.

What about the “Mean Percent Weigh Loss” value (Gloeophyllum trabeum; Penflufen Retention 16 g/m^3) of the same compound?
The value was 3.6%.

What about the “Mean Percent Weigh Loss” value (Gloeophyllum trabeum; Penflufen Retention 24 g/m^3) of the same compound?
The value was 3.0%.

What about the “Mean Percent Weigh Loss” value (Gloeophyllum trabeum; Penflufen Retention 32 g/m^3) of the same compound?
Its value is 3.5%.

And the “Mean Percent Weigh Loss” value (Gloeophyllum trabeum; Penflufen Retention 48 g/m^3)?
Its value is 3.0%.

What about the “Mean Percent Weigh Loss” value (Gloeophyllum trabeum; Penflufen Retention 64 g/m^3) of the same compound?
The value was 1.6%.

What about the “Mean Percent Weigh Loss” value (Gloeophyllum trabeum; Penflufen Retention 80 g/m^3) of the same compound?
The value was 2.0%.

And the “Mean Percent Weigh Loss” value (Postia placenta; Penflufen Retention 8 g/m^3)?
Its value is 3.5%.

And the “Mean Percent Weigh Loss” value (Postia placenta; Penflufen Retention 12 g/m^3)?
The value was 1.9%.

And the “Mean Percent Weigh Loss” value (Postia placenta; Penflufen Retention 16 g/m^3)?
Its value is 2.1%.

And the “Mean Percent Weigh Loss” value (Postia placenta; Penflufen Retention 24 g/m^3)?
The value was 1.2%.

And the “Mean Percent Weigh Loss” value (Postia placenta; Penflufen Retention 32 g/m^3)?
Its value is 1.2%.

What about the “Mean Percent Weigh Loss” value (Postia placenta; Penflufen Retention 48 g/m^3) of the same compound?
The value was 1.1%.

And the “Mean Percent Weigh Loss” value (Postia placenta; Penflufen Retention 64 g/m^3)?
The value was 1.1%.

And the “Mean Percent Weigh Loss” value (Postia placenta; Penflufen Retention 80 g/m^3)?
Its value is 1.3%.

And the d50 [1]?
The d50 was 2 to 3 microns.
